Assay results reported in article PMC4747407 (Oncotarget, 2015).
Entries after “also recorded” stand apart in the source; their conditions may differ.

Assays:
SW480 cells [1] = experiment: Gene expression profiling of Wnt-related genes (TLDA qPCR) in SW480 cells; assay type: cell-based, human; conditions: 30 μmol/L, 72 h
Method: (§1) Gene expression profiling was performed using a custom designed TaqMan® low density array (TLDA). Total RNA was isolated from cell lines using RNeasy Mini Kit (Qiagen) and from xenograft tumor FFPE tissue using RecoverAll Total Nucleic Acid Isolation (Ambion). Human and mouse, real-time qPCR TLDAs (384-well micro fluidic card) were designed with genes selected based on their involvement in Wnt signalling (see supplementary Tables 2 and 3 for lists of genes on TLDAs). cDNA was generated from total RNA using High Capacity cDNA Reverse Transcription kit (Life Technologies) or SuperScript® VILO™ Master Mix (Life Technologies). 100 ng cDNA was combined with TaqMan® Gene Expression Master Mix (Life Technologies) for the cell lines and TaqMan® Advanced FAST Master Mix (Life Technologies) for the xenograft tissue for each port (in duplicate). TLDAs were run based on recommended cycling times for each master mix. Ct values were calculated and imported into GeneData Analyst for further analysis. To calculate the ΔCts, gene expression was normalized to several housekeeping genes. Relative fold change was calculated by comparison to the DMSO or vehicle-treated controls for each sample. A student's t-test was used to calculate P-values and hierarchical clustering used Manhattan distance and complete linkage plotting of selected significant genes to generate heat maps.

[2] = system: NCI-H460 human lung cancer xenografts; experiment: NCI-H460 lung cancer xenograft model, antitumor activity; assay type: in vivo, mouse
[3] = small phase 1 study; cited from earlier work
TNKS1/2 = TNKS1/2 inhibition, summary over the enzyme assays; assay type: biochemical, human; conditions: range over the assays used
Method: (§2) Samples were analyzed via phosphorimaging.

[4] = system: DNA repair mutant DT40 cell lines; experiment: Proliferation assay in panel of isogenic DNA repair mutant DT40 cell lines (XTT); assay type: cell-based, avian
P-glycoprotein = system: P-glycoprotein; set-up: method as in PMID 22246237; conditions: cited from earlier work
SW480 cells [5] = experiment: Western blot of Wnt/β-catenin pathway proteins in SW480 cells; assay type: cell-based, human; conditions: 10 μmol/L, 24 h
Method: (§3) SW480, DLD-1 (Wnt-dependent) or RKO (Wnt-independent) cells were plated in 6-well plates and incubated overnight. Cells were treated with E7449, olaparib or XAV939 and incubated for various time periods prior to processing by SDS PAGE and western blot analysis. […] Following binding of appropriate secondary antibodies labeled with IRDye® (LI-COR), image analysis was performed with Image Studio software for the LI-COR Odyssey system (version 2.1.10).

Wnt1 model tumors = experiment: Gene expression of Wnt-related genes in Wnt1 model tumors (mouse TLDA); assay type: in vivo; conditions: 7 days of drug treatment
Method: as §1

[6] = system: PARP activity in NCI-H460 tumor tissue; experiment: Pharmacodynamic PARP inhibition (PAR ELISA) in NCI-H460 tumors; assay type: in vivo, mouse
Method: (§4) Control group (10 mice) were treated with vehicle (0.5% methyl cellulose in water). Mice were euthanized and tumors were harvested at 1, 6, 12, 24 and 36 hours post treatment (5 mice per treatment per time point). Individual tumors were removed and flash frozen in liquid nitrogen for PAR analysis. PARP inhibition was also evaluated in tumors from NCI-H460 human lung cancer subcutaneous xenografts. Control group animals (24 mice) were treated with vehicle (0.5% methyl cellulose). […] Mice were euthanized and tumors were harvested at 0.25, 1, 6, 12, 24 and 36 hours post-treatment. PAR levels were determined by ELISA using the procedure provided by Trevigen and comparing to a PAR standard curve. Protein concentration of tumor lysates was determined using the BCA assay (Thermo Scientific). Results were converted from pg PAR/assay well to ng PAR/mg protein. Data was pooled from multiple experiments. The percent of control for each time point was calculated by using an average of all control replicates from that experiment.

[7] = system: Wnt-mediated hair re-growth; experiment: Re-growth of hair after depilation in C57BL/6 mice; assay type: in vivo, mouse; conditions: 30, 100 or 300 mg/kg oral once daily for 12 days
Source text: Re-growth of hair was monitored and recorded by photography.

[8] = system: PARP activity in MDA-MB-436 tumor tissue; experiment: Pharmacodynamic PARP inhibition (PAR ELISA) in MDA-MB-436 tumor lysates; assay type: in vivo, mouse
Method: as §4

[9] = Gastrointestinal toxicity in preclinical studies; assay type: in vivo
DLD-1 cells = experiment: Western blot of Wnt/β-catenin pathway proteins in DLD-1 cells; assay type: cell-based, human; conditions: 24 h
Method: as §3

[10] = system: MX-1 human breast cancer xenografts; assay type: in vivo
Method: (§5) All studies were performed according to IACUC approved protocols. The general health of mice was monitored daily. Tumor volume was determined by caliper measurements (mm), using the formula (l x w^2)/2 = mm^3, where l and w refer to the larger and smaller perpendicular dimensions collected at each measurement. Tumor dimensions were recorded twice per week starting when tumors reached an approximate size of 100 to 150 mm^3. Body weights were recorded twice per week and relative body weight was calculated as follows: Relative body weight = (body weight on day of measurement/body weight on first day of treatment).
Carboplatin combination in MX-1 orthotopic xenografts: female nude mice were implanted with MX-1 cells (0.5 × 10^6) in the thoracic mammary fat pad. Treatment started on day 3 when the average tumor size was approximately 50 mm^3. Carboplatin was administered as a single intravenous dose at 60 mg/kg on day 3 or 4.

[11] = set-up: method as in PMID 22246237; conditions: cited from earlier work
PARP3 or PARPs 6–16 = experiment: 32P-NAD+ auto-PARylation selectivity screen; assay type: biochemical, human; conditions: 32P-NAD+ auto-PARylation screen
Method: as §2

wild type DT40 cells = experiment: cells; conditions: DT40, 48 h, read-out: IC50, cell proliferation, wild type DT40 cells
Method: Proliferation assays were performed in a panel of 32 isogenic DT40 cell lines, in which each line was deficient in a distinct DNA repair gene [31]. Cells were seeded and incubated with test compound at various concentrations for 2–3 days (~ 8 cell cycles). […] Each experiment was conducted in duplicate and a minimum of 3 separate experiments were performed. […] For proliferation assays cells were plated at low density in 96 well plates. […] Cell growth was assessed using the CellTiter-Glo® cell viability assay (Promega, Cat# G7573). Each experiment was conducted in duplicate and a minimum of 3 separate experiments were performed.

[12] = system: Wnt1 (int-1) mammary tumors; experiment: Wnt1 subcutaneous mammary tumor model
Method: as §5
Tumor pieces cut to approximately 2 mm^3 in size were injected subcutaneously in female nude mice. Treatment was initiated approximately 9–10 days post-implantation of mice.

O=c1[nH]nc2c3c(cccc13)N=C(CN1Cc3ccccc3C1)N2 [E7449, 8-(isoindolin-2-ylmethyl)-2,9-dihydro-3H-pyridazino[3,4,5-de]quinazolin-3-one]
number of Wnt-related genes with significantly altered expression (SW480 cells [1]): 30 genes
antitumor activity [2]: No antitumor activity
dose-limiting toxicity [3]: fatigue
tolerability in cancer patients [3]: generally well tolerated
IC50 (TNKS1/2): 50 to 120 nM
sensitivity of cell lines deficient in NHEJ repair ([4]; KU70, PKCS, LIGIV deficient DT40): Resistance
effect of loss of POLQ on sensitivity ([4]; POLQ deficient DT40): no effect
sensitivity of DT40 cells lacking PARP expression ([4]; versus wild type DT40): significantly resistant
P-glycoprotein substrate (P-glycoprotein): not a substrate for P-glycoprotein
Cyclin D1 protein levels (SW480 cells [5]): modest decrease
axin2 protein level (SW480 cells [5]): significant increase
reduction of active (non-phosphorylated) β-catenin level (SW480 cells [5]): ~ 70%
reduction of total β-catenin level (SW480 cells [5]): ~50%
expression of Wnt-related genes CAR2, FZD9, LEF1, VIL1 in tumors (Wnt1 model tumors): also altered in tumors from E7449-treated mice, albeit to a lesser extent
PARP inhibition in tumor at early time points ([6]; single dose 1 mg/kg (lowest), 0.25 and 1 hour): significant PARP inhibition
duration of complete PARP inhibition ([6]; single dose 100 mg/kg): up to 12 hours
time of rebound in PARP activity ([6]; single dose 100 mg/kg): 24 h
time of at least partial recovery of PARP activity to basal levels ([6]; single dose 1 and 3 mg/kg): ≤ 6 h
hair re-growth [7]: significantly delayed
time of partial rebound of PARP activity ([8]; single dose 30 mg/kg): ≤ 12 h
duration of significant PARP inhibition in tumor ([8]; single dose 100 mg/kg): at least 12 hours
time of recovery of PARP activity to basal levels ([8]; single dose 100 mg/kg): ≤ 24 h
gastrointestinal toxicity [9]: no gastrointestinal toxicity was observed
effect on levels of β-catenin (DLD-1 cells): robust effect on levels of β-catenin was not observed
tolerability of combination with carboplatin ([10]; E7449 100 mg/kg + carboplatin 60 mg/kg): well tolerated with no signs of toxicity or significant body weight loss
antitumor activity, E7449 started 1 day post-carboplatin ([10]; E7449 100 mg/kg once daily + carboplatin 60 mg/kg i.v.): closely resembled that observed with carboplatin alone
antitumor activity, E7449 simultaneously with or prior to carboplatin ([10]; E7449 100 mg/kg once daily + carboplatin 60 mg/kg i.v. single dose): enhanced the antitumor activity of carboplatin
antitumor activity, single agent ([10]; E7449 100 mg/kg oral once daily, carboplatin single i.v. dose 60 mg/kg): inactive; also recorded: No antitumor activity
brain penetration [11]: brain penetrable
oral bioavailability [11]: orally bioavailable
inhibitory activity on PARP3 or PARPs 6–16 (PARP3 or PARPs 6–16): Significant inhibitory activity was not observed
IC50 (wild type DT40 cells): 3200 nM
effect of adding E7449 to E6201 on body weight loss ([12]; E7449 100 mg/kg + E6201 40 mg/kg): did not impact body weight loss
tumor growth, single agent ([12]; E7449 100 mg/kg once daily, Wnt-C59 10 mg/kg once daily, E6201 40 mg/kg i.v. Q4Dx3): did not inhibit tumor growth; also recorded: No antitumor effect
antitumor activity, combination of E7449 and E6201 ([12]; E7449 100 mg/kg oral once daily + E6201 40 mg/kg i.v. Q4Dx3): Antitumor activity was enhanced; also recorded: synergistic inhibition of tumor growth
tolerability (body weight loss), single agent ([12]; E7449 100 mg/kg, Wnt-C59 10 mg/kg once daily): well tolerated with minimal toxicity
